Measurements: patent US10919929B2, “Glucocorticoid inhibitors for treatment of prostate cancer” (Sloan-Kettering Institute for Cancer Research, priority 2013, dated 2021)

Experiments:
GR mRNA in LREX′ cells = GR mRNA in LREX′ cells cultured in vitro; type: cell-based, human
[1] = tested on: AR target genes in LREX′ cells; assay: Expression of AR target genes in LREX′ cell line in steroid depleted media (RT-qPCR); type: cell-based, human
From the text: A. Normalized expression array signal (Illumina HT-12) of a suite of 74 AR target genes in control (n=10), 4 day (n=8), and LREX′ (n=8, right) xenograft tumors. Genes are ranked by degree of restoration of expression in resistant tissue ((Res-4 day)/(Control-4 day)). All resistant tissues were continued on anti-androgen treatment through time of harvest. B. Fractional restoration values of each of the 74 AR targets in LREX′ xenografts (n=8) or resistant tissues from the validation cohort (n=12). C. GR mRNA in resistant tissues used in B. D. Expression of AR target genes in the LREX′ cell line in steroid depleted media after 8 hours of treatment with the indicated agonists, in vitro. […] A. LnCaP/AR cells engineered to express GFP or GR were treated with indicated drugs. […] D. Control or AR siRNA knock-down in LREX′ followed by treatment with indicated drugs. […] Cells were treated in charcoal stripped media. Expression determined by RT-qPCR+/−s.e.m.
LREX′ cells were derived from a single enzalutamide resistant tumor that was harvested, disaggregated with collagenase treatment, and then maintained in RPMI supplemented with 20% FBS and 1 μM enzalutamide. Cells were initially grown on collagen-coated flasks until confluent and then were maintained on standard tissue culture dishes. CS1 were similarly derived from vehicle treated tumors and maintained in standard LNCaP/AR media. LNCaP/AR and LREX′ cells were cultured in phenol-red free RPMI with 10% charcoal-stripped FBS prior to drug treatments.

GR = GR (Homo sapiens, UniProt P04150); details: patients with Cushing syndrome; cited from earlier work
[2] = list continues over r20-r28; cited from earlier work
[3] = in vivo; cited from earlier work
[4] = tested on: AR target gene expression; assay: AR target gene expression with GR antagonists; type: cell-based
[5] = tested on: LNCaP/AR xenograft tumors; assay: LNCaP/AR xenograft pilot cohort, continual antiandrogen treatment until acquired resistance
[6] = tested on: GR protein in LREX′ cells; assay: Intracellular GR flow cytometry of LREX′ cells on enzalutamide withdrawal and re-exposure; details: LREX′off cells re-exposed to enzalutamide 1 micromolar
Procedure: (§2) Cells were re-suspended in Fixation/Permeabilization working solution (eBioscience; San Diego, Calif., USA) at a concentration of 1-2×10^6 cells/ml for 30 minutes at room temperature. The cells were subsequently stained with primary antibodies, Rabbit (DA1E) mAb IgG XP® Isotype Control, androgen receptor (D6F11) XP® Rabbit mAb, or glucocorticoid receptor (D6H2L) XP® Rabbit mAb (Cell Signaling Technology; Danvers, Mass., USA) for 20 minutes at room temperature. The cells were washed twice with Flow Cytometry Staining Buffer (eBioscience; San Diego, Calif., USA), and then stained with secondary antibody, Allophycocyanin-AffiniPure F(ab′)2 Fragment Donkey Anti-Rabbit IgG (Jackson ImmunoResearch Laboratories, Inc.; Westgrove, Pa., USA) for 20 minutes at room temperature. Following two more washes, the cells were re-suspended in Flow Cytometry Staining Buffer and analyzed by flow cytometry on a LSRII (BD Biosciences; San Jose, Calif., USA) using FlowJo software (Tree Star, Ashland, Oreg., USA). For GR staining, cells were maintained in their standard media and treated with dexamethasone for 20 minutes prior to harvest to fully expose antigen. For AR staining, cells were cultured in charcoal stripped media without added ligands for 3 days prior to harvest.

PSA = assay: Maximal PSA decline in patients receiving enzalutamide; type: in vivo; details: enzalutamide 160 mg daily
Procedure: Patients were treated with enzalutamide 160 mg daily. Bone marrow biopsy and aspirate (˜5 mL) were performed before treatment and at week 8. The bone marrow specimens were obtained by transiliac biopsy, and samples were processed according to standard MD Anderson Cancer Center decalcification and fixation procedures. After pathologic evaluation, samples were stored in the MD Anderson Cancer Center Prostate Cancer Tissue Bank. Imaging studies were performed at the time of suspected prostate cancer progression or at the treating physician's discretion, but generally not prior to 12 weeks post-treatment initiation. […] Retrospective analysis for GR was performed by IHC on […] formalin-fixed, paraffin-embedded bone marrow biopsy sections with anti-GR at a dilution of 1:200 (BD Transduction Laboratories #611227). A Dako autostainer and standard 3,3-diaminobenzidine were used. GR expression was assessed in a blinded fashion by two pathologists scoring at least 100 tumor cells per specimen. […]
To determine whether GR expression is a feature of clinical antiandrogen resistance, GR expression was evaluated in bone metastases from patients receiving enzalutamide. […] Using a GR IHC assay optimized for use in bone marrow samples, the percentage of GR-positive tumor cells was quantified and the data was dichotomized based on clinical response. […]

LnCaP/AR and sub-lines = assay: In vitro growth by cell counting (Vi-cell); type: cell-based; details: 1 micromolar enzalutamide
Procedure: . […] C. […] AUC=area under curve. […] .
(§1) VCaP: Cells were plated in triplicate and then assayed in triplicate at the time points indicated using CellTiter-Glo (Promega). Viability is plotted normalized to day 1. For knockdown studies, cells were infected and then plated 3 days later for the experiment without prior drug selection. LnCaP/AR and sub-lines: Equivalent numbers of cells were plated and then harvested and counted in triplicate at indicated time points using the Beckman Coulter Vi-Cell XR. Cells were passaged at each time point and identical numbers of cells re-plated. Fold increase in cell numbers were determined for each time interval.

[7] = mouse, in vivo; cited from earlier work
[8] = tested on: GR protein in CS1 or LnCaP/AR cells; assay: Intracellular GR flow cytometry of CS1 and LnCaP/AR cells under enzalutamide; details: enzalutamide 1 micromolar, 4 week experiment
Procedure: as §2

VCaP cells = assay: VCaP cell viability by CellTiter-Glo; type: cell-based; details: Enz 10 micromolar, standard culture conditions
Procedure: Enz=10 micromolar, Dex=100 nM, CMP 15=1 micromolar. A. Western blot analysis of prostate cancer cell lines. B, C and D. Cell viability assessed by CellTiter-Glo (Promega) assay and normalized to day 1 value after indicated treatments+/−s.e.m. E. Confirmation of GR knock-down by western blot after infection with GR targeting shRNA. F. Apoptosis as assessed by cPARP western blot after 3 days of indicated treatment. G. A suite of AR targets relevant to VCaP was defined (see methods) and normalized expression of each gene after 24 hours of indicated drug treatments is depicted by heat map and ranked by degree of induction with Dex. H. Expression of the top two genes from B. (KLK2 and FKBP5) after 24 hours of indicated treatments+/−s.e.m.
as §1, with “interval. […]” for “interval.”

[9] = tested on: LREX′ cells transcriptome; assay: Expression profiling of LREX′ cells after DHT or Dex, AR and GR signatures; type: cell-based, human; details: enzalutamide 10 micromolar
[10] = steroid depleted media, 8 hours
[11] = harvest after progression on continued treatment

GR, sequence (P04150 whole entry): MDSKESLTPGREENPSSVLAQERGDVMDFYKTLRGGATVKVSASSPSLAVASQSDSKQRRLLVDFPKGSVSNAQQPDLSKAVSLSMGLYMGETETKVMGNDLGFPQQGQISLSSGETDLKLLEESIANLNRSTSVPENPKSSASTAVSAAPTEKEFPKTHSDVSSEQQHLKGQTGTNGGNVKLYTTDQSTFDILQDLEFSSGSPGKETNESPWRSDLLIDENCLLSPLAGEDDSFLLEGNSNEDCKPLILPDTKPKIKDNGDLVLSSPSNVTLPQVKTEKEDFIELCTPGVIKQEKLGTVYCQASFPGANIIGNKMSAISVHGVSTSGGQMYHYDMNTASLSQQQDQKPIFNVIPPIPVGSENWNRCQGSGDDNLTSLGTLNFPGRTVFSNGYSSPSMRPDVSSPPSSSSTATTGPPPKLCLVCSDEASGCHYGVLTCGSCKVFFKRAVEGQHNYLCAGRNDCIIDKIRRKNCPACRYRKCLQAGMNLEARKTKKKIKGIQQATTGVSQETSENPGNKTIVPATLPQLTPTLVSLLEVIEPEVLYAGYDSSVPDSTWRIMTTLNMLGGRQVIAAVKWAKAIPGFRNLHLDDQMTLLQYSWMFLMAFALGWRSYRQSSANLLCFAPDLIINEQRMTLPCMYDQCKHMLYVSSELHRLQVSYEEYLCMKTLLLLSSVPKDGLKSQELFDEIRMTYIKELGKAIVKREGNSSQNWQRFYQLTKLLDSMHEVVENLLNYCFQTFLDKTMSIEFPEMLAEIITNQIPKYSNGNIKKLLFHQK

C[C@]12CCC(=O)C[C@@H]1CC[C@@H]1[C@@H]2CC[C@]2(C)[C@@H](O)CC[C@@H]12 [DHT, dihydrotestosterone]
GR mRNA levels (GR mRNA in LREX′ cells; LREX′, charcoal stripped media, 8 hours DHT exposure): reduced GR mRNA levels | induction of KLK3 (PSA) [1, 10]: comparably induced | regulation of 8 genes (7 AR targets and PSA) [1, 10]: regulated

CC#C[C@]1(O)CC[C@H]2[C@@H]3CCC4=CC(=O)CCC4=C3[C@@H](c3ccc(N(C)C)cc3)C[C@@]21C [RU486, RU-486]
risk-benefit profile of GR inhibition in humans (GR): acceptable risk-benefit profile

CC(C)C(=O)Nc1ccc([N+](=O)[O-])c(C(F)(F)F)c1 [flutamide]
Adverse Drug Reactions [2]: Hot flushes, loss of libido, impotence, | Distribution: Protein-binding [3]: Distribution: Protein-binding: 90% | Excretion [3]: Urine, faeces (small amounts)

CC#C[C@]1(O)CC[C@H]2[C@@H]3CCC4=CC(=O)CCC4=C3[C@@H](c3ccc4c(c3)OCO4)C[C@@]21C [ORG 34517]
AR target gene expression [4]: activate AR target gene expression

CNC(=O)c1ccc(N2C(=S)N(c3ccc(C#N)c(C(F)(F)F)c3)C(=O)C23CCC3)cc1F [RD162]
% Regression: D 28 Mean ([5]; LNCaP/AR xenografts in castrate mice, 10 mg/kg oral, day 28): 80% | Day of Harvest: Mean [5, 11]: D173 | Mean Tumor Volume (mm^3) at harvest [5, 11]: 554 mm^3

CNC(=O)c1ccc(N2C(=S)N(c3ccc(C#N)c(C(F)(F)F)c3)C(=O)C2(C)C)cc1F [enzalutamide]
doubling time of GR expression induction [6]: 6.8 days | patients with maximal PSA decline greater than 50% (PSA; good responders (benefit > 6 months)): 11 of 13 | patients with maximal PSA decline greater than 50% (PSA; poor responders (discontinued < 6 months)): 1 of 14 | antiproliferative effect in vitro (LnCaP/AR and sub-lines): weak antiproliferative effect | half-life in mice [7]: prolonged half-life | GR mRNA levels after enzalutamide withdrawal in vitro (GR mRNA in LREX′ cells; LREX′ cells, FBS media without enzalutamide, 23 days): dropped as early as 1 day after discontinuation | effect of co-treatment on DHT reduction of GR mRNA (GR mRNA in LREX′ cells; LREX′, 10 micromolar enzalutamide, 8 hours): reversed | median GR expression intensity [8]: no change in median expression intensity | effect on DHT regulation of 8 AR target genes ([1]; enzalutamide 10 micromolar): blocked | effect on Dex activity ([1]; enzalutamide 10 micromolar): did not notably affect | growth of VCaP cells (VCaP cells): inhibited growth | effect on Dex-induced gene expression (heatmap) [9]: not impacted
